For this assay, the system named is CEM cells HIV-1 protection, formazan growth assay. In words: NCI AIDS Antiviral Assay. As to conditions: for IC50: measured here: growth of uninfected CEM cells. The gist of the method:
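Five concentrations of each compound were applied to infected and uninfected human CEM cells. Protection from HIV-1 was judged from growth measured with a soluble formazan assay.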

The structures appear in SMILES notation. The source made the active and inactive calls.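 How the source made its calls: active means compounds giving half or more protection of infected cells from virus-caused growth loss, again on retest; inactive means the rest.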 Where a SMILES comes first, the peptide text is derived from it. The star is where a group is joined. Boc = CC(C)(C)OC(=O)*; OBn = c1ccc(CO*)cc1 Bounds are passed on as bounds.

Usually EC50 stands for the concentration needed to bring the measured effect to its halfway point. In general, IC50 refers to the concentration at which inhibition is half-maximal. Lower therefore signals greater potency. Regarding `C=CCC12CC(=O)CCC1c1ccc(OC)cc1C2=O` (stereo not given), the EC50 was over 251 µM and the half-maximal inhibitory concentration (IC50) came to 141 µM. With `CC1=Nn2c(nnc2-c2ccc(N)cc2)NC(C)(C)C1`, the EC50 is over 933 µM and the IC50 was over 933 µM. On to `COC(CNC(=O)C(C)NC(=O)CCc1ccccc1)OC` (stereo not given), for which the result was inactive. With `CC(C)CCC[C@@H](C)C1CCC2C3CCC4C[C@@H](CCC=C(c5cc(F)c(O)c(C(=O)O)c5)c5cc(F)c(O)c(C(=O)O)c5)CC[C@]4(C)C3CC[C@@]21C` (stereo not given in full), the half-maximal effective concentration (EC50) was 21.9 µM and the IC50 is over 200 µM. For `COc1ccc2nc3c([N+](=O)[O-])ccc4c3c(c2c1)N(CCCN(C)C)C(=S)N4CCCN(C)C` the same measures were over 2 µM and 0.537 µM. With `Nn1c(CCCCCCCCc2nnc(-c3c(O)ccc4ccccc34)n2N)nnc1-c1c(O)ccc2ccccc12`, the EC50 is over 200 µM and the IC50 was over 200 µM. Consider `CCOC(=O)c1ccc(CS(=O)c2ccccc2)c([N+](=O)[O-])c1` (stereo not given), for which the EC50 is over 204 µM and the concentration for half-maximal inhibition (IC50) came to 3.47 µM. For `COc1ccc(CNc2nc3ccccc3nc2C(=O)O)cc1` the same measures were over 200 µM and 34.7 µM. The like results for `CC(C)=CCOc1cc(NC(=S)c2ccsc2C)ccc1Cl` were, in that order, 0.0417 µM and 15.8 µM. Turning to `c1ccc(-c2onc3c2CCCC3)cc1`, the result was inactive.

As to `O=c1nc(N2CCCC2)nc(N2CCCC2)s1`, the outcome was inactive. Consider `COC1(OC)N=C(N)C2(C#N)C(c3ccccc3)NC3=C(CCC3)C12C#N` (stereo not given), for which the EC50 is over 200 µM and the IC50 was over 200 µM. As for `O=[N+]([O-])c1ccc(NC(=S)Nc2ccccn2)cc1`, the EC50 was over 200 µM and the IC50 was determined as 19.1 µM.

On to `O=C1C(Br)=C[C@H]2C3C=CC(Br)(C3=O)[C@@H]12` (stereo not given in full), for which the EC50 is over 794 µM and the IC50 was determined as 3.72 µM. With `CN/N=C(\C)C(CN(C)C)C(c1ccccc1)c1c(O)c2ccccc2oc1=O` (stereo not given), the EC50 is over 135 µM and the IC50 was determined as 102 µM. For `O=C(OCC(OC(=O)c1ccccc1)C1CC(C2(O)CCCCC2)C(=O)O1)c1ccccc1` (stereo not given) the same measures were over 50.1 µM and over 50.1 µM. Turning to `COC(=O)[C@@H]1C2OC(C)(C)OC2CN1C(=O)OCc1ccccc1` (stereo not given in full), the outcome was inactive. For the compound `Cc1ccc(-c2c3c(n(C4OC(CO)C(O)C(O)C4O)c(=S)c2C#N)CC(C)(C)CC3=O)cc1` (stereo not given), the EC50 was over 200 µM and the concentration for half-maximal inhibition (IC50) was found to be 97.7 µM. For `CCN(CC)CC(=O)Nc1cc(NC(=O)CN(CC)CC)c(C)c(NC(=O)CN(CC)CC)c1` the same measures were over 200 µM and 56.2 µM.

Consider `CC1CSC(=S)N1C(=O)N1C(=S)SCC1C` (stereo not given), for which the outcome was inactive. On to `CCC1=CCN(c2cc(C)ccn2)OC1c1ccc(OC)cc1` (stereo not given), for which the EC50 was over 32.4 µM and the IC50 was over 32.4 µM.

Turning to `OCc1ccc2c(c1)CC1(C2)Cc2cc3c(cc2C1O)CCC3` (stereo not given), the EC50 is over 200 µM and the half-inhibitory concentration (IC50) is 1.82 µM.

For the compound `O=C(Nc1ccc([N+](=O)[O-])cc1[N+](=O)[O-])C(=O)C(C(=O)c1ccc2ccccc2c1)C1OC(=O)c2ccccc21` (stereo not given), the EC50 is over 66.1 µM and the IC50 worked out at 19.5 µM.

Regarding `O=S(=O)(Oc1cccc2ccccc12)C(F)(F)F`, the EC50 was over 200 µM and the half-maximal inhibitory concentration (IC50) worked out at 120 µM. Consider `Cc1ccc(/C=C2\CCCCCC2=O)cc1`, for which the EC50 was over 200 µM and the half-inhibitory concentration (IC50) stood at 182 µM. The like results for `C1CSCCSCCCSCCSCCCSCCSCCCSCCSC1` were, in that order, over 7.08 µM and over 7.08 µM. For `O=C1OC(=O)C23CSCC12C1C=CC3O1` (stereo not given) the same measures were over 417 µM and over 417 µM. On to `Cc1cn(C2CC(NO)C(CO)O2)c(=O)[nH]c1=O` (stereo not given), for which the half-maximal effective concentration (EC50) was 38.9 µM and the IC50 turned out to be 178 µM. For `CC(C)C(NC(=O)OC(C)(C)C)C(=O)N1CCCC1C(=O)OCc1ccccc1` (stereo not drawn) (Boc-Val-Pro-OBn; configuration not given here) the same measures were over 200 µM and 123 µM.

`C=C1C(O)C2(O)OCC34C(CC5C(C)=CC(=O)C(O)C5(C)C23)OC(=O)C(OC(=O)C/C=C(\C)CCCCC)C14` (stereo not given): the EC50 was over 47.9 µM and the IC50 was 0.0151 µM. For `COc1cc(OC)c(NC2=NCCO2)cc1Cl` the same measures were over 200 µM and 13.5 µM. For the compound `CCN(CC)c1cccc2c1/C(=N/O)CCCC2`, the EC50 is over 200 µM and the IC50 is 120 µM. For `CC(NC(=O)C(C)NC(=O)C(CC(N)=O)NC(=O)CN)C(=O)NC(CO)C(=O)NC(C)C(=O)NC(CCCN=C(N)N)C(=O)NC(CCCN=C(N)N)C(N)=O` (stereo not given) (H-GNAASARR-NH2; configuration not given here), the result was inactive. With `COP(=O)(OC)/C(=C\C1=CN(C(c2ccccc2)(c2ccccc2)c2ccccc2)CN1)NC=O`, the EC50 was over 200 µM and the IC50 was found to be 21.4 µM. Consider `Cc1ccc(C(=O)/C=C/c2ccc(Cl)c(Cl)c2)cc1`, for which the EC50 is over 17.8 µM and the IC50 was over 17.8 µM.

On to `CCOP(=O)(Nc1ccccc1P(=O)(OCC)OCC)OCC`, for which the EC50 is over 200 µM and the IC50 was over 200 µM.

Regarding `CCCCN(CCCC)CC(C(=O)Nc1ccc([N+](=O)[O-])cc1[N+](=O)[O-])/C(C)=N\NC(=O)c1ccncc1` (stereo not given), the EC50 is over 56.2 µM and the concentration for half-maximal inhibition (IC50) is over 56.2 µM. On to `CC(=O)N/N=C1/CC[C@@]2(C)C(=CC[C@H]3C4CCC(C(C)CCCC(C)C)[C@@]4(C)CCC32)C1(C)C` (stereo not given in full), for which the EC50 is over 200 µM and the IC50 turned out to be 61.7 µM. For `O=S(=O)(c1ccccc1)C1(Sc2ccccc2)CC=CC1` the same measures were over 81.3 µM and 51.3 µM.

For the compound `CCOC(=O)c1cc(-c2ccc(OC)c(OC)c2)cn1C`, the EC50 was over 200 µM and the IC50 worked out at 39.8 µM. Regarding `CN1C2CCC1CC1(C2)SCCS1`, the result was inactive.

For the compound `CCOC(=O)c1nc2ccc(Cl)cc2c2c1Cc1ccccc1-2`, the EC50 is over 20 µM and the IC50 was over 20 µM. `CCOC(=O)C1=CNC(C(=O)OCC)C1c1cccn1-c1ccccc1` (stereo not given): the EC50 was over 200 µM and the IC50 turned out to be 36.3 µM. Consider `CN(C)c1ccc(C=C(C(=O)O)C(=O)O)cc1`, for which the EC50 is over 550 µM and the concentration for half-maximal inhibition (IC50) was over 550 µM. Take `C1=Cc2nc1c(-c1ccncc1)c1ccc([n-]1)c(-c1ccncc1)c1nc(c(-c3ccncc3)c3ccc([n-]3)c2-c2ccncc2)C=C1.[Zn+2]`: the EC50 is over 19.1 µM and the IC50 is over 19.1 µM. As to `OCCCSCCCCSCCCO`, the EC50 was over 41.7 µM and the concentration for half-maximal inhibition (IC50) was over 41.7 µM. Consider `Cc1ccccc1N(CCC#N)C1=NN(C(=O)CC(=O)Nc2ccccc2)C(c2ccccc2)C1` (stereo not given), for which the EC50 was over 77.6 µM and the IC50 was over 77.6 µM. As for `O=C(NC/C(Br)=C/Br)Nc1cccc2ccccc12`, the EC50 is 148 µM and the half-maximal inhibitory concentration (IC50) was over 200 µM. The like results for `CCOC(=O)C(=CNC(=S)Nc1cc(C)ccc1C)C(=O)OCC` were, in that order, over 200 µM and over 200 µM.

Regarding `S=C1NC2(CCCCCC2)NN1c1ccccc1`, the EC50 is over 100 µM and the IC50 came out at 30.9 µM.

Turning to `Cc1ccc(S(=O)(=O)OC2C3C=CC2C2CSCC32)cc1` (stereo not given), the EC50 is over 100 µM and the IC50 was over 100 µM. On to `O=C(O)[C@@H]1CCCC[C@@H]1C(=O)N(C1CCCCC1)C1CCCCC1`, for which the EC50 was over 77.6 µM and the half-maximal inhibitory concentration (IC50) is over 77.6 µM.

Turning to `O=S1(=O)C2CCCCC2(N2CCOCC2)C1c1ccccc1` (stereo not given), the EC50 was over 407 µM and the IC50 was 45.7 µM. The like results for `Cc1cccc(NC(=O)Nc2ccccc2F)n1` were, in that order, over 200 µM and over 200 µM. The like results for `Cc1nc(Nc2ccccc2)sc1C(=O)CC(=O)C(=O)Nc1c(C(C)C)cccc1C(C)C` were, in that order, over 77.6 µM and over 77.6 µM. For `O=Cc1ccc(-c2cccs2)s1`, the result was inactive.

In the case of `CCCC(C)(COC(N)=O)COC(=O)NC1CC1` (stereo not given), the EC50 is over 200 µM and the IC50 is over 200 µM. For `CC1CC(=O)Nc2nc3ccccc3n21` (stereo not given), the EC50 is over 200 µM and the 50% inhibitory concentration (IC50) is over 200 µM.

As to `O=C1CC(O)CC(=O)C1=C(O)CCCCCCCCCCc1ccccc1` (stereo not given), the EC50 was over 19.5 µM and the IC50 is over 19.5 µM. With `CC(=O)OCC1C(=O)OCC1C(=O)N1Cc2cc3ccccc3nc2C1` (stereo not given), the EC50 is over 20 µM and the concentration for half-maximal inhibition (IC50) was 0.331 µM. For `Cc1cccc(-n2c(=S)[nH]c3c(sc(=O)n3-c3ccccc3C)c2=O)c1` the same measures were over 2 µM and over 2 µM.

In the case of `COc1ccc(N=[N+]([O-])c2ccc(OC)cc2)cc1`, the EC50 was over 200 µM and the concentration for half-maximal inhibition (IC50) is over 200 µM.

On to `CCOC(=O)c1c(C)[nH]c(C(=O)C(N=O)C(=O)OCC)c1C` (stereo not given), for which the EC50 is over 200 µM and the IC50 is over 200 µM. For the compound `CC(=O)OCC(C)C1=C(O)C(=O)C2(C)C/C=C(/C)CC/C=C(\C)CCC(O)C(C)CCC12` (stereo not given), the EC50 was over 200 µM and the half-maximal inhibitory concentration (IC50) came out at 11.5 µM.

Turning to `Cc1ncc([N+](=O)[O-])n1CCNC(=O)Cn1ccnc1[N+](=O)[O-]`, the EC50 was over 200 µM and the IC50 is over 200 µM.

`NNC(=O)c1ccncc1`: the EC50 is over 200 µM and the IC50 is over 200 µM. For the compound `S=C(NNc1nc2ccccc2n2cccc12)Nc1ccc(Br)cn1`, the EC50 was over 0.2 µM and the concentration for half-maximal inhibition (IC50) worked out at 0.0617 µM. On to `N#Cc1nc(C2=C(Cl)c3ccccc3OC2)[nH]c1C#N`, for which the outcome was inactive. For `COC(=O)/C=C/c1cc(OC)c2c(c1)[C@H](C(=O)OC)[C@@H](c1ccc(O)c(OC)c1)O2`, the EC50 is over 20 µM and the concentration for half-maximal inhibition (IC50) worked out at 1.02 µM.

In the case of `CC1=C(C(=O)Nc2ccccc2C)C(c2ccco2)C(C(=O)Nc2ccccc2C)=C(C)N1C`, the EC50 was over 21.9 µM and the half-maximal inhibitory concentration (IC50) was over 21.9 µM. As for `CCN(CC)c1ccc2c(c1)Nc1cc(=C(C#N)C#N)c3ccccc3c1=N2`, the EC50 is over 19.5 µM and the IC50 is over 19.5 µM.

Turning to `CC1=C(C#N)C2(N)OC1(C)C1C(=O)C=CC(=O)C12` (stereo not given), the EC50 was over 200 µM and the IC50 was 23.4 µM.

The values are drawn from PubChem BioAssay AID179 (DTP/NCI, 2004).
